Marks after values point to notes of the source that are not given here.
Key:
Type in all cases: cell-based
[1] = molecular target: T1, AmelOR109 (Apis mellifera, UniProt A0A7M6UWX9); assay: single sensillum recording, ab3A OSN; conditions: agonist; 1000 µg on filter paper; vs mineral oil
T1 construct: gene Or109; full-length ORF, codon-optimized, pUAST.attB at 86F8; expressed in ab3A OSNs of D. melanogaster lacking OR22a/OR22b (empty neuron); endogenous Drosophila Orco as co-receptor; with Odorant receptor coreceptor
T1 sequence (A0A7M6UWX9 1-390): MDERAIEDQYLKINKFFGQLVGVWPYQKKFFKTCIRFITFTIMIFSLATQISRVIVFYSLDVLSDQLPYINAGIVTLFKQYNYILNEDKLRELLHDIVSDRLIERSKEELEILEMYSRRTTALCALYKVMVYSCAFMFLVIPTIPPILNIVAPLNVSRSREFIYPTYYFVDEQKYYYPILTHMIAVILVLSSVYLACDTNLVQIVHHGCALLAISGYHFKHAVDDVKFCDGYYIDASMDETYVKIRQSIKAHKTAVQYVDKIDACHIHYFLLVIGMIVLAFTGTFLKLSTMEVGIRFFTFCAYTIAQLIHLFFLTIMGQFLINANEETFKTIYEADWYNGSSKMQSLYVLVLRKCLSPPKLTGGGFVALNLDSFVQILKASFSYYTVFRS
T1 sequence (Q9VNB5 1-486 partner): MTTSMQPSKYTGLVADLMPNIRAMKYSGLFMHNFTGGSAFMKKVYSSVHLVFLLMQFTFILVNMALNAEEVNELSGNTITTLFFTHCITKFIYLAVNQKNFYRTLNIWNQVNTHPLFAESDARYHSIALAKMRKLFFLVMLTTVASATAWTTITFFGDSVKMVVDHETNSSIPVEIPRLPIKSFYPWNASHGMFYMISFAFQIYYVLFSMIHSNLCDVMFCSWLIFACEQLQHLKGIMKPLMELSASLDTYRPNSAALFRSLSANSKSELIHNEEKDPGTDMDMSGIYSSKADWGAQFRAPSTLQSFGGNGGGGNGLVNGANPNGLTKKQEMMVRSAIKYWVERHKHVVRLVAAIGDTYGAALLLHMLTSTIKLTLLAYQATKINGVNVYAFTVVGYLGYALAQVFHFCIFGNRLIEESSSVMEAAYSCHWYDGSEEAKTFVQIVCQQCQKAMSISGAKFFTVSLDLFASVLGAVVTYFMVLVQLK

[2] = molecular target: T1, AmelOR109; assay: single sensillum recording, ab3A OSN, dose-response; conditions: agonist; estimated airborne amount in stimulus, not a concentration; vs mineral oil; full curve only in Figure 5B
[3] = molecular target: T1, AmelOR109; assay: transcuticular calcium imaging (GCaMP6s), ab3A OSN; conditions: agonist; 1000 µg on filter paper; vs mineral oil

| SMILES | dose of statistical significance [2] [pmol] | other results |
| --- | --- | --- |
| CCC(C)=O [2-butanone] |  | spikes per second [1]: AmelOR109 was activated by multiple compounds in the panel, including 2-butanone |
| CC(=O)OCc1ccccc1 [benzyl acetate] | 390 |  |
| CCCC(=O)OCC [ethyl butyrate] | 47000 |  |
| CC(C)=CCC/C(C)=C/C(=O)O [geranic acid] |  | ΔF/F0 [3]: two compounds from the aggregation pheromone were strongly active: geranic acid |
| CC(=O)OCCC(C)C [isopentyl acetate] | 2700 |  |
| CCCCCCCCOC(C)=O [octyl acetate] | 15000 |  |

— PMC12848076, “Identification of two odorant receptors tuned to alarm pheromone compounds in the honey bee Apis mellifera” (Communications Biology, 2025)
